Measured values: patent publication US7018623B2, “B complex vitamin compositions that protect against cellular damage caused by ultraviolet light” (priority 2001, dated 2006)

Tests used:
[1] = system: human volunteers exposed to direct sunlight; test: Oral self-administration of B vitamins by human subjects, sunburning on continuous exposure to sunlight; type: in vivo; details: for expected sunburning effects of continuous sun exposure: one patient, a year and a half, oral, B12 300–500 mcg/day, folic acid 2–5 mg/day, or both with niacinamide 200–500 mg/day
Description: 1. Over the period of four weeks a white middle aged couple in their forties on holiday in Mexico self administered 400–600 mcg vitamin B12/day in the form of 100 mcg tablets.
2. Over the period of a year and a half a […] self-administered vitamin B12 alone at 300 mcg to 500 mcg/day in the form of 100 mcg tablets, folic acid alone in the form of folic acid alone at 2 mg–5 mg/day in the form of 1 mg tablets or a combination of both vitamins in the same dose range taken with niacinamide 200 mg–500 mg/day in the form of 100 mg tablets. […] Normal burning rates returned within 24 hrs of the cessation of oral administration of the various formulations.
3. […] The published UVB index gave an expected time of continuous exposure to sunlight in the Edmonton AB area of 45 minutes. The maximum SPF (skin protection factor) was computed to be approximately 330/45=7.3.
5. These experiments have been repeated with approximately twenty human volunteers of various skin types ranging in age from 25 to 35 years. Most were female, one was a qualified physician, and many were qualified nurses or other healthcare professionals trained in observing symptoms of skin burning. Over the past year, a variety of different combinations of the three B complex vitamins were tested by exposure of these individuals to direct sunlight in locales such as Alberta Canada, Kelowna Canada, Mexico, Montego Bay Jamaica, San Diego Calif., Phoenix Ariz., Los Angeles Calif., and Honolulu, Hi. either in the course of their work or on vacation. The subjects had various skin types and were of many different nationalities.

[2] = human, topical application; cited from earlier work

Compound | rate of sunburning when exposed continuously to sunlight ([1]; 400–600 mcg/day oral, four weeks, couple in Mexico, versus past experience and versus not taking the supplement) | expected sunburning effects of continuous sun exposure [1] | systemic absorption and urinary excretion after application to the skin [2]
vitamin B12 | significant reduction in the rate of sunburning | some amelioration of the expected sunburning effects | 
Nc1nc2ncc(CNc3ccc(C(=O)N[C@@H](CCC(=O)O)C(=O)O)cc3)nc2c(=O)[nH]1 [folic acid] |  | some amelioration of the expected sunburning effects | 
COc1ccc(C(=O)c2ccccc2)c(O)c1 [oxybenzone] |  |  | absorbed systemically and excreted in human urine soon after application to the skin
